Data taken from patent US4457919A, “Method of imparting immunomodulating, antiviral or antitumor activity” (Newport Pharmaceutical International, Inc., priority 1982, dated 1984).
Read-outs that look alike come from different tables or passages of the source.

Key:
[1] = system: human peripheral blood lymphocytes; assay: PHA mitogen-induced lymphocyte proliferation using human peripheral blood lymphocytes (HPBL); format: cell-based; conditions: for Cpm Incorp. +PHA: with PHA; for Cpm Incorp. +PHA / Cpm Incorp. -PHA / S.I. / fold induction at 0.036 µM / fold induction at 0.36 µM / fold induction at 3.6 µM: NPT 15392 values means of three experiments; for Cpm Incorp. -PHA: without PHA; for S.I.: NPT 15458 p ≤ 0.05; for fold induction at 0.036 µM / fold induction at 0.36 µM / fold induction at 3.6 µM: Homo sapiens, Lymphocyte, read-out: D/C (S.I. drug / control); for Immunomodulating (in vitro) lymphocyte proliferation (in words): PHA, HPBL; for Immunomodulating (in vitro) Lymph. Prolif., change: Table 11 summary
Procedure: 2. Mitogen induced lymphocyte proliferation using human peripheral blood lymphocytes (HPBL) (in vitro).
1. Twenty-two and a half grams of Ficoll 400 (Pharmacia, M.W. .perspectiveto.400,000) are dissolved in 200 ml of distilled H2 O. When most of the material is in solution, the volume is then adjusted to 250 ml with distilled H2 O.
2. Thirty-four grams of Hypaque (sodium diatrizoate, Sterling Organics, M.W. .perspectiveto.636) are dissolved in 100 ml distilled H2 O.
3. Solutions are then sterile filtered thorugh a 0.45μ millipore filter and stored in sterile containers at 4° C. away from light.
4. Working solutions are prepared by mixing 10 ml Hypaque solution with 24 ml Ficoll solution. The mixture is warmed to 25° C. with constant stirring.
1. Human blood samples are obtained by veinipuncture into heparinized 20 ml-vacutainer tubes. Fifteen to twenty ml of the undiluted blood is gently layered over an equal volume of Ficoll-Hypaque solution in sterile 50 ml polycarbonate centrifuge tubes using aseptic techniques.
2. Prepared samples are centrifuged at 25° C., 400×g for 30 mins. The fuzzy white band at the interface is aseptically aspirated into a 50 ml sterile centrifuge tube with 10-20 ml RPMI-1640. The cells are washed once at 25° C. 400×g for 10 mins. at 25° C.
3. Pelleted PBL's are resuspended in 1 ml RPMI for every 8 ml whole blood originally used and counted with a Coulter counter. Concentration is adjusted with RPMI-1640 supplemented with glutamine and antibiotics. The cells are held at room temperatue until used.
1. Lipopolysaccharide B or Phytohemagglutinin P powder is weighed and dissolved in RPMI-1640 at a concentration of 1000 μg/ml (1 mg/ml) and filter sterilized through a 0.45μ millipore filter.
2. Solutions are aliquotted (1 ml/tube) asceptically into labelled sterile cryotubes and frozen. Samples are not refrozen after partial use, but may be stored for a day or two at 4° C. Lyophilized powder is kept refrigerated at 4° C.
1. PBL's are prepared as in SOP #I-004 in serum-free RPMI-1640 supplemented with glutamine and antibiotic-antimycotic solution (GIBCO). One tenth ml per well is added to each well of 96-well microtest culture plates (CoStar Plastics) with 8-channel automatic micropipettors (Flow Labs.) fitted with sterile tips.
2. Mitogen solutions are thawed rapidly and diluted to 4 times the desired concentration with RPMI-1640.
3. Test compounds are prepared for use as per SOP #C-002, using RPMI-1640 as diluent, and diluted to 4 times the final desired concentration.
4. Fifty μl of each dilution of mitogen and/or test compound is added to 6 replicate cultures. Plain RPMI-1640 is used in the same amounts in control cultures for a total volume of 0.2 ml/well.
5. Cultures are incubated at 37° C. in a humidified 95% air, 5% CO2 atmosphere (pH .perspectiveto.6.0- 7.0) for 48 hours. The cells are then labelled with 0.5μCi/well ^3 H-TdR (Thymidine) for an additional 18 hours. the cells are harvested with a multiple automatic sample harvester (M.A.S.H.) machine. Nonadherent cells are aspirated onto glass fiber filter strips with 0.9% saline solution (10 well flushes) and the cells lysed with distilled water (20 well flushes). The strips are thoroughly air dried, residual cell deposits cut from the strips and each sample placed in 1 dram glass scintillation vials. Scintillation fluid concentrate (Scintiprep 1, Fisher Chemicals) is diluted 1:50 with scintillation grade toluene (Packard) and 1 ml added to each vial. Samples are evaluated by liquid scintillation spectroscopy and the data expressed as the means counts per minute per test group.

[2] = system: Influenza virus (A sub-type)
HPBL (active E-rosettes) = assay: Enhancement of active E-rosette formation in HPBL (in vitro); format: cell-based, human; conditions: for Immunomodulating (in vitro) Rosette, change: Table 11 summary; for Immunomodulating (in vitro) rosette formation (in words): active rosettes, HPBL
Procedure: 3. Enhancement of active rosette formation (in vitro).
3. As can be noted from Table 7, both NPT 15457 and NPT 15458 are effective in modulating active rosette formation in HPBL. […] In Experiment #2, placebo-treated controls have abnormally high values for active rosettes.
1. Ten to 40 ml of whole blood is drawn from healthy volunteers in heparinized tubes.
2. Lymphocytes are separated from the above blood using Ficoll-hypaque separation techniques.
3. Various concentration of test compound are prepared in RPMI-1640.
4. The concentration of lymphocytes are adjusted to 2×10^6 /ml of RPMI-1640.
5. Lymphocytes are incubated with test compound for 90 minutes at 37° C.
6. Sheep Red Blood Cells (SRBC.s) (one to two weeks old) are washed 3 times with PBS and diluted to a final concentration of 0.5% inj RPMI-1640.
7. Reaction tubes are set up containing the following:
8. The above reactants are centrifuged at 200×g for 5 minutes at room temperature.
9. The sediment is then gently resuspended and a […] sample placed in a hemocytometer.
10. The number of rosettes are then counted using a microscope with any lymphocyte having 3 or more attached red cells being counted as a rosette.

[3] = Formation of NPT 15392 on incubation with liver homogenate (HPLC); format: in vitro ADME; conditions: for % of NPT 15392: 0 hrs.
Source text: (§1) | ^a Determined using HPLC

HPBL = assay: Formation of NPT 15392 on incubation with human peripheral blood lymphocytes (HPLC); format: in vitro ADME; conditions: HPBL, 0 hrs.
Source text: as §1

[4] = as above; format: in vitro ADME; conditions: human, peripheral blood lymphocytes
Source text: as §1

Vero Cells = assay: Formation of NPT 15392 on incubation with Vero cells (HPLC); format: in vitro ADME, African Green Monkey; conditions: 0 hrs.
Source text: as §1

[5] = as above; format: in vitro ADME, African Green Monkey; conditions: monkey, 24 hrs.
Source text: as §1

[6] = Experiment #1, 3.6 n moles/ml, placebo 9.23 ± 2.9, NPT 15457 and NPT 15458 p ≤ 0.05 versus placebo
[7] = Experiment #2, 0.36 n moles/ml, placebo 34.2 ± 6.6, NPT 15392 and NPT 15458 p ≤ 0.05 versus placebo
[8] = HPBL, 24 hrs., read-out: % of NPT 15392
[9] = Table 11 summary, read-out: Convertible to NPT 15392, Biological: HPBL

Structure (SMILES)	Cpm Incorp. +PHA ([1]; 0.036 n moles/ml)	Cpm Incorp. -PHA ([1]; 0.036 n moles/ml) [Cpm]	S.I. ([1]; 0.036 n moles/ml)	Cpm Incorp. +PHA ([1]; 0.36 n moles/ml)	Cpm Incorp. -PHA ([1]; 0.36 n moles/ml) [Cpm]	S.I. ([1]; 0.36 n moles/ml)	Cpm Incorp. +PHA ([1]; 3.6 n moles/ml)	Cpm Incorp. -PHA ([1]; 3.6 n moles/ml) [Cpm]	S.I. ([1]; 3.6 n moles/ml)	fold induction at 0.036 µM ([1]; 0.036 n moles/ml)	fold induction at 0.36 µM ([1]; 0.36 n moles/ml)	fold induction at 3.6 µM ([1]; 3.6 n moles/ml)	Immunomodulating (in vitro) lymphocyte proliferation (in words) [1]	Immunomodulating (in vitro) Lymph. Prolif., change [1]	% Inhibition of Influenza Virus Growth ([2]; 3.6 nmoles/ml) [%]	% Inhibition of Influenza Virus Growth ([2]; 10.8 nmoles/ml) [%]	% Inhibition of Influenza Virus Growth ([2]; 36 nmoles/ml) [%]	% Inhibition of Influenza Virus Growth ([2]; .36 nmoles/ml) [%]	% Active E-Rosettes (mean ± S.E.) (HPBL (active E-rosettes); [6]) [%]	% Active E-Rosettes (mean ± S.E.) (HPBL (active E-rosettes); [7]) [%]	also measured
CCCCCC[C@H]([C@H](C)O)n1cnc2c(=O)[nH]cnc21 (relative stereo) [NPT 15392, erythro-9-(2-hydroxy-3-nonyl)-hypoxanthine, reference compound]	59,167 Cpm	297	199	69,057 Cpm	577	120	67,328 Cpm	381	176	1.27	0.76	1.13	Yes	12-27%	30	42	73	20	16.2 ± 1.0	15.4 ± 2.9	Antiviral activity in vitro (in words) [2]: Yes; Immunomodulating (in vitro) Rosette, change (HPBL (active E-rosettes)): +78%; Immunomodulating (in vitro) rosette formation (in words) (HPBL (active E-rosettes)): able to decrease the high levels of normal values and Yes; % of NPT 15392 [3]: 100%; metabolised at 0.5 h [3]: 100%; % of NPT 15392 (HPBL): 100%; metabolised at 24 h [4, 8]: 100%; % of NPT 15392 (Vero Cells): 100%; metabolised at 24 h [5]: 100%
CCCCCC[C@H]([C@H](C)OC(C)=O)n1cnc2c(=O)[nH]cnc21 (relative stereo) [NPT 15458, erythro-9-(2-Acetoxy-3-Nonyl)-Hypoxanthine]	59,898 Cpm	214	280	63,858 Cpm	221	289	69,055 Cpm	238	290	1.43	1.48	1.48	effectve in augmenting PHA induced lymphocyte proliferation and Yes	43-48%	40	80	88	26	19.4 ± 1.0	23.25 ± 1.24	Cleavage to NPT 15392 (in words) ([2]; hemadsorption assay): almost completely cleaved to NPT 15392; Antiviral activity in vitro (in words) [2]: Yes; Immunomodulating (in vitro) Rosette, change (HPBL (active E-rosettes)): +11%; Immunomodulating (in vitro) rosette formation (in words) (HPBL (active E-rosettes)): as active as NPT 15392 in restoring the depressed immunity to normal levels and able to decrease the high levels of normal values and Yes; % of NPT 15392 [3]: 0%; metabolised at 0.5 h [3]: 70%; % of NPT 15392 (HPBL): 0%; metabolised at 24 h [4, 8]: 100%; metabolised at 24 h [4, 9]: 100%; % of NPT 15392 (Vero Cells): 0%; metabolised at 24 h [5]: 50%
CCCCCC[C@H]([C@H](C)OC(=O)CCC(=O)O)n1cnc2c(=O)[nH]cnc21 (relative stereo) [NPT 15457, Erythro-9-(2-Succinoxy-3-Nonyl) Hypoxanthine]	59,569 Cpm	240	250	59,689 Cpm	228	261	52,149 Cpm	232	224	1.28	1.33	1.14	effectve in augmenting PHA induced lymphocyte proliferation and Yes	14-28%	0	18	13	18	24.8 ± 6	33.6 ± 2.4	Immunomodulating (in vitro) Rosette, change (HPBL (active E-rosettes)): +166%; Immunomodulating (in vitro) rosette formation (in words) (HPBL (active E-rosettes)): as active as NPT 15392 in restoring the depressed immunity to normal levels and Yes; % of NPT 15392 [3]: 0%; metabolised at 0.5 h [3]: 14%; % of NPT 15392 (HPBL): 0%; metabolised at 24 h [4, 8]: 18.2%; metabolised at 24 h [4, 9]: 18%; % of NPT 15392 (Vero Cells): 0%; metabolised at 24 h [5]: 0%
